The text below walks through data of ChEMBL document CHEMBL3596135, “A critical evaluation of pyrrolo[2,3-d]pyrimidine-4-amines as Plasmodium falciparum apical membrane antigen 1 (AMA1) inhibitors” (Medchemcomm, 2014).

Data set [1] addresses T1, Apical membrane antigen 1 (Plasmodium falciparum (isolate 3D7)) (UniProt Q7KQK5).
T1 sequence (whole entry): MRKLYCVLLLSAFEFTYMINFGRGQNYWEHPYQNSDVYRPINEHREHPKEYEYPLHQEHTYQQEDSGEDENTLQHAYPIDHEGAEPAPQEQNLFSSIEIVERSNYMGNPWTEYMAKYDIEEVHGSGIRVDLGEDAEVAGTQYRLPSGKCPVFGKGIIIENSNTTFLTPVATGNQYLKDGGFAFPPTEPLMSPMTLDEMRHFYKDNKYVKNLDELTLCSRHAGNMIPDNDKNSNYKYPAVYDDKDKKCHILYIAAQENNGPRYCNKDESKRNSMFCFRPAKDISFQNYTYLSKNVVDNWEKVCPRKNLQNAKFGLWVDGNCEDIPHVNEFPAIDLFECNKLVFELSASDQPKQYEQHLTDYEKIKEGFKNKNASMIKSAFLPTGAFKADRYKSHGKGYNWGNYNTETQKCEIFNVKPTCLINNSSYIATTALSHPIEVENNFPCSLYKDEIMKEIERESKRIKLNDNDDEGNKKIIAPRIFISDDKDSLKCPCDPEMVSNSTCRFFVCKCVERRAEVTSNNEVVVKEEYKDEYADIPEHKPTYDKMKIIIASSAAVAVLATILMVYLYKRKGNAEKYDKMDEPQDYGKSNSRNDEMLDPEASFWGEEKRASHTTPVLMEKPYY
Description: Binding affinity to Plasmodium falciparum 3D7 AMA1 (104 to 442) up to 200 uM by SPR analysis. In general terms: SPR reads the build-up and loss of mass on a sensor chip optically.

Data set [2] relates to Plasmodium falciparum. Briefly: Antimalarial activity against synchronised early trophozoite stage of Plasmodium falciparum 3D7 assessed as parasite growth inhibition measured after two invasion cycles by flow cytometric analysis. Format: functional, organism-based.
Data set [3] addresses T2, Apical membrane antigen 1 (Plasmodium falciparum (isolate 3D7), UniProt Q7KQK5).
T2 sequence (Q7KQK5 whole entry): T1 sequence (whole entry)
Description: Binding affinity to Plasmodium falciparum 3D7 AMA1 (104 to 442) by SPR analysis.

Data set [4] is described as follows: Self-aggregating activity of the compound in phosphate buffer at pH 7.4 at 5 to 80 uM by 1D 1H-NMR spectroscopic analysis in absence of Tween 20. Conditions: pH 7.4, 80 µM. In kind it is physicochemical.
Data set [5] can be described thus: Solubility of the compound in phosphate buffer at pH 7.4. Format: physicochemical.
Data set [6] can be described thus: Self-aggregating activity of the compound in phosphate buffer at pH 7.4 at 80 uM by 1D 1H-NMR spectroscopic analysis in presence of Tween 20. In kind it is physicochemical. As to conditions: pH 7.4, 80 µM.
In data set [7] the target is T2, Apical membrane antigen 1. Briefly: Binding affinity to recombinant His-tagged Plasmodium falciparum 3D7 AMA1 assessed as inhibition of interaction with biotin-tagged RON2 peptide after 30 mins by AlphaScreen assay. In general terms: In Alpha technology, singlet oxygen from a donor bead excites a nearby acceptor bead.
Data set [8] relates to Plasmodium falciparum. Description: Antimalarial activity against Plasmodium falciparum FVO schizont infected in RBC assessed as inhibition of merozoite invasion after 3 to 4 hrs by flow cytometric analysis. In kind it is functional, organism-based. A general note: In flow cytometry, cells or beads pass a laser one at a time.
Data set [9] addresses T1, Apical membrane antigen 1 (Plasmodium falciparum (isolate 3D7)). Briefly: Competitive binding affinity to Plasmodium falciparum 3D7 AMA1 (104 to 442) at 80 uM after 200 milisecs by CPMG binding assay in presence of R1 peptide and absence of detergent.
Data set [10] shares this target. Description: Competitive binding affinity to Plasmodium falciparum 3D7 AMA1 (104 to 442) at 80 uM after 200 milisecs by CPMG binding assay in presence of RON2 peptide and absence of detergent.
Data set [11] shares this target. Briefly: Competitive binding affinity to Plasmodium falciparum 3D7 AMA1 (104 to 442) at 80 uM after 200 milisecs by CPMG binding assay in presence of RON2 peptide and Tween 20.
Data set [12] shares this target. Briefly: Competitive binding affinity to Plasmodium falciparum 3D7 AMA1 (104 to 442) at 80 uM after 200 milisecs by CPMG binding assay in presence of R1 peptide and Tween 20.

Where a name gives a salt, the structure may show the parent alone. Activity calls are given as the source filed them. The calls are words filed in the database; no cut-off is given here. Where only a bound is given, the exact number is not on record here.

A word on the Kd: it is the constant that tells how readily two partners part at equilibrium. By IC50 is commonly meant the concentration needed to halve the response being measured.

As for `Clc1ncnc2c1c(Br)cn2C1CCCC1`, the outcome in [1] was inactive.
On to `Cn1cc(-c2ccncc2)c2c(N)ncnc21`, for which the “growth inhibition (GI)” value in the data set with Plasmodium falciparum [2] was “Active”. The same compound displayed a Kd in data set [3] of at least 1 mM. In addition, the Activity result in [4] and in data set [6] was “Not Active” throughout. In addition, the solubility result in data set [5] is listed as “soluble”.
For the compound `CN(C)CCCN1c2ccccc2C(C)(C)c2ccccc21` [DIMETACRINE], the IC50 in [7] was determined as 28 µM.
Turning to `Nc1ncnc2c1c(-c1ccc(Oc3ccccc3)cc1)cn2C1CCCC1`, the IC50 is over 1000 µM in the data set on Plasmodium falciparum [2] and 30 µM with Plasmodium falciparum [8]. The compound further registered a Kd in [3] of at least 1 mM. Further, the Activity result is reported as “Active” in data set [4] and “Not Active” in data set [6]. Further, the solubility result in [5] is “soluble”.
Regarding `COc1ccc(-c2cn(C3CCCC3)c3ncnc(N)c23)cc1`, the result in [9], in data set [10], in data set [11] and in data set [12] was Active. Also, the figures for the IC50 in the data set on Plasmodium falciparum [2] and with Plasmodium falciparum [8] were 63 µM and 9.8 µM, respectively. Moreover, the Kd in [3] is at least 1 mM. Besides, the Activity entry in [4] and in data set [6] was “Not Active” in each case. In addition, the solubility entry in data set [5] was “soluble”.
Regarding `Clc1[nH]cnc2nccc1-2`, the result in [1] was inactive.
Take `Cn1cc(-c2cccc(N)c2)c2c(N)ncnc21`: in the data set with Plasmodium falciparum [2], the “growth inhibition (GI)” value is “Active”. In data set [3], this compound yielded a Kd of at least 1 mM. Besides, the Activity result in [4] and in [6] was “Not Active” throughout. The solubility entry in data set [5] was “soluble”.
Take `Cn1cc(-c2ccccc2F)c2c(N)ncnc21`: in the data set on Plasmodium falciparum [2], the “growth inhibition (GI)” value is “Active”. In data set [3], the Kd was at least 1 mM. Moreover, the Activity entry in data set [4] and in [6] was “Not Active” each time. For the same compound, the solubility result in data set [5] is “soluble”.
For the compound `CN(C)c1ncnc2c1c(-c1ccc(Oc3ccccc3)cc1)cn2C1CCCC1`, the IC50 was over 1000 µM in the data set on Plasmodium falciparum [2] and 6 µM in the data set with Plasmodium falciparum [8]. Besides, the Kd in [3] is at least 1 mM. The Activity result was “Active” in data set [4] and “Not Active” in data set [6]. Further, in data set [5], the solubility result was “soluble”.
As to `Cn1cc(-c2ccccc2)c2c(N)ncnc21`, the “growth inhibition (GI)” value with Plasmodium falciparum [2] was “Active”. Further, the Kd in data set [3] was at least 1 mM. Further, the Activity entry in [4] and in [6] was “Not Active” throughout. Besides, the solubility entry in data set [5] was “soluble”.
On to `Cn1cc(-c2cccc(F)c2)c2c(N)ncnc21`, for which the IC50 in the data set on Plasmodium falciparum [2] is under 31 µM. In data set [3], this compound had a Kd of at least 1 mM. Moreover, the Activity entry in [4] and in [6] was “Not Active” throughout. Besides, in [5], the solubility result was “soluble”.
Regarding `CCn1cc(-c2ccc(OC)cc2)c2c(N)ncnc21`, in the data set on Plasmodium falciparum [2], the “growth inhibition (GI)” value was “Active”. This compound returned a Kd in [3] of at least 1 mM. The Activity entry in data set [4] and in data set [6] was “Not Active” throughout. In addition, the solubility entry in data set [5] was “soluble”.
On to `Cn1cc(-c2ccc(F)cc2)c2c(N)ncnc21`, for which the “growth inhibition (GI)” value in the data set with Plasmodium falciparum [2] is “Active”. Further, the Kd in [3] is at least 1 mM. Also, the Activity result in data set [4] and in data set [6] was “Not Active” in each case. Besides, the solubility entry in data set [5] is listed as “soluble”.
Turning to `COc1cccc(-c2cn(C)c3ncnc(N)c23)c1`, the “growth inhibition (GI)” value with Plasmodium falciparum [2] was “Active”. In [3], this compound displayed a Kd of at least 1 mM. The Activity entry in data set [4] and in data set [6] was “Not Active” throughout. Also, in data set [5], the solubility entry is “soluble”.
Consider `COc1ccc(-c2cn(C)c3ncnc(N)c23)cc1`, for which, in the data set on Plasmodium falciparum [2], the “growth inhibition (GI)” value was “Active”. Further, the Kd in data set [3] is at least 1 mM. The Activity entry in [4] and in [6] was “Not Active” in each case. Besides, in [5], the solubility result is on record as “soluble”.
Take `Clc1cccc(C(c2ccc3[nH]cnc3c2)n2ccnc2)c1` (stereo unspecified) [LIAROZOLE HYDROCHLORIDE]: the half-inhibitory concentration (IC50) in [7] was found to be 29 µM.
`COc1ccccc1-c1cn(C)c2ncnc(N)c12`: the “growth inhibition (GI)” value with Plasmodium falciparum [2] is “Active”. For the same compound, the Kd in data set [3] is at least 1 mM. Further, the Activity entry in [4] and in [6] was “Not Active” throughout. For the same compound, the solubility result in [5] is reported as “soluble”.
Take `Cn1cc(-c2ccc(N)cc2)c2c(N)ncnc21`: in the data set with Plasmodium falciparum [2], the “growth inhibition (GI)” value was “Active”. In data set [3], this compound yielded a Kd of at least 1 mM. In addition, the Activity result in data set [4] and in data set [6] was “Not Active” each time. Also, in data set [5], the solubility result was “soluble”.
